Measurements published in ChEMBL document CHEMBL5576044, “Inhibition of kynurenine production by N,O-substituted hydroxylamine derivatives” (Bioorg Med Chem Lett, 2024).
Calls of active or inactive are those of the source. No cut-off for these calls is given here.

What was measured:
[1] = Inhibition of kynurenine production in human SK-OV-3 cells; type: functional, cell-based
[2] = Cytotoxicity against human SK-OV-3 cells; type: toxicity, cell-based
[3] = biological target: Indoleamine 2,3-dioxygenase 1 (Homo sapiens) (UniProt P14902); assay: Inhibition of recombinant human IDO1 at 10 ug/ml relative to control; settings: dose 10.0 µg/ml
Sequence of Indoleamine 2,3-dioxygenase 1 (Homo sapiens) (P14902 whole entry, looked up): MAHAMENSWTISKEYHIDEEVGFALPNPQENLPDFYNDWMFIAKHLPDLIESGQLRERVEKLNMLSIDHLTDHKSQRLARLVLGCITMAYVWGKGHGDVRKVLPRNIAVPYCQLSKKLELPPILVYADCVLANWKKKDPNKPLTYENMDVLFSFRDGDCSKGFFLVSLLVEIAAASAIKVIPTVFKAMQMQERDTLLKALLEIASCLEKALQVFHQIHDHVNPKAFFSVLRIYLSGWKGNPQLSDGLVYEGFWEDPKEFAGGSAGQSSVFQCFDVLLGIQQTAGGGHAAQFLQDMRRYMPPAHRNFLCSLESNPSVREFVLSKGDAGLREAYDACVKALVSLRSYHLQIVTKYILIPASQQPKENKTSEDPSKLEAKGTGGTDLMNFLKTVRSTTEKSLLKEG

[4] = biological target: Indoleamine 2,3-dioxygenase 1 (Homo sapiens) (UniProt P14902); assay: Inhibition of IDO1 in human SK-OV-3 cells; type: cell-based
A549 = assay: Reduction in IFN-gamma activated IDO1 expression level in human A549 cells at 1.25 to 40 microg/ml by Western blotting analysis; type: functional, cell-based; settings: dose 1.25-40 µg/ml
[5] = biological target: Signal transducer and activator of transcription 3 (Homo sapiens) (UniProt P40763); assay: Inhibition of STAT3 phosphorylation in IFN-gamma activated human A549 cells at 5 to 40 microg/ml by Western blotting analysis; type: cell-based; settings: dose 5-40 µg/ml
Sequence of Signal transducer and activator of transcription 3 (Homo sapiens) (P40763 whole entry): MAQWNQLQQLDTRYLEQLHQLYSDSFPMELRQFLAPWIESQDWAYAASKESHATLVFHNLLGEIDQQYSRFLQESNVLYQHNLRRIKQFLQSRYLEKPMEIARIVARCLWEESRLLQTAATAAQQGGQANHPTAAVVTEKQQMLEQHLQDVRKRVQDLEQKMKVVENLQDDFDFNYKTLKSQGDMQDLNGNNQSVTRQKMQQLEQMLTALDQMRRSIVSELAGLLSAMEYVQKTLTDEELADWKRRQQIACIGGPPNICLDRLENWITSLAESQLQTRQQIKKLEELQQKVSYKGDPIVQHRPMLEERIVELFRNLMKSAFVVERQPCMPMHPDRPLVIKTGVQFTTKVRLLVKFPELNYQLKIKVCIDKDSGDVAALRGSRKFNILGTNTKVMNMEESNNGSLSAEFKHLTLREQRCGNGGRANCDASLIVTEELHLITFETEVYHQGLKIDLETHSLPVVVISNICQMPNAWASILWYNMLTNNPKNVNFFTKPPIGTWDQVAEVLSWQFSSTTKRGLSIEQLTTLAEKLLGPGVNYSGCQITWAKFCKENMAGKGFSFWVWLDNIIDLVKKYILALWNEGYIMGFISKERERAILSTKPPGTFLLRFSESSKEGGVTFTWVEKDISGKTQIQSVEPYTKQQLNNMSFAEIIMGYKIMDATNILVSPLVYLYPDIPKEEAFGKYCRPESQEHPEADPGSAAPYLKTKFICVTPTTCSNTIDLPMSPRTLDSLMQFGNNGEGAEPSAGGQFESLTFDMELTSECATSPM

[6] = Drug metabolism in C57BL/6 mouse serum at 200 mg per mouse administered via IP measured after 2 hrs by LC-MS analysis; type: ADME
[7] = Drug degradation in human SK-OV-3 cell culture supernatant; type: ADME, cell-based
[8] = Drug concentration in C57BL/6 mouse serum at 200 mg per mouse administered via ip after 2 hrs by LC-MS analysis; type: ADME, organism-based; settings: read-out: Drug uptake
Mus musculus [9] = assay: In vivo inhibition of kynurenine production in C57BL/6 mouse serum at 200 mg per mouse administered via oral dosing and measured after 2 hrs by LC-MS analysis; type: functional, organism-based
Mus musculus [10] = assay: In vivo inhibition of kynurenine production in C57BL/6 mouse serum at 200 mg per mouse administered via ip and measured after 2 hrs by LC-MS analysis; type: functional, organism-based
[11] = Drug metabolism in C57BL/6 mouse serum at 200 mg per mouse administered via oral dosing measured after 2 hrs by LC-MS analysis; type: ADME
[12] = Drug concentration in C57BL/6 mouse serum at 200 mg per mouse administered via oral dosing after 2 hrs by LC-MS analysis; type: ADME; settings: read-out: Drug uptake
[13] = Drug concentration in C57BL/6 mouse serum at 100 mg per mouse administered via oral dosing after 2 hrs by LC-MS analysis; type: ADME; settings: read-out: Drug uptake
Mus musculus [14] = assay: In vivo inhibition of kynurenine production in C57BL/6 mouse serum at 100 mg per mouse administered via oral dosing and measured after 2 hrs by LC-MS analysis; type: functional, organism-based
[15] = Drug metabolism in human SK-OV-3 cell culture supernatant assessed as O-benzylhydroxylamine Hydrochloride formation after 24 hrs; type: ADME, cell-based; settings: sk-ov-3, 24 h
[16] = Drug metabolism in human SK-OV-3 cell culture supernatant assessed as O-4-nitrobenzyl hydroxylamine Hydrochloride formation after 24 hrs; type: ADME, cell-based; settings: sk-ov-3, 24 h
[17] = Stability in mouse serum after 1 hr; type: ADME
Mus musculus [18] = assay: In vivo inhibition of kynurenine production in iv dosed mouse serum by LC/MS analysis; type: functional, organism-based
[19] = Drug metabolism in mouse serum assessed as N-Cbz-L-alanine formation after 1 hr; type: ADME, cell-free

Row | Structure (SMILES) | IC50 [1] | inhibition [3] | inhibition [4] | IC50 [2] | also measured
1 | O=C(N[C@@H](CO)C(=O)Nc1ccccc1O)OCc1ccccc1 | > 100 µM | 2.9% | – | > 100 µM | –
2 | O=C(N[C@@H](CO)C(=O)O)OCc1ccccc1 | > 100 µM | -5.5% | – | > 100 µM | –
3 | O=C(NOCc1ccc([N+](=O)[O-])cc1)C12CC3CC(CC(O)(C3)C1)C2 | > 100 µM | -3.3% | – | > 100 µM | –
4 | CONC(=O)[C@H](CO)NC(=O)OCc1ccccc1 | > 100 µM | -8.3% | – | > 100 µM | –
5 | CC12CC3CC(C)(C1)CC(C(=O)NOCc1ccccc1)(C3)C2 | > 100 µM | 7.9% | – | > 100 µM | –
6 | NS(=O)(=O)NCCNc1nonc1C(=NO)Nc1ccc(F)c(Br)c1 [EPACADOSTAT] | – | – | – | – | concentration at 2 h [13]: 1400 nM
7 | NS(=O)(=O)NCCNc1nonc1/C(=N/O)Nc1ccc(F)c(Br)c1 | – | – | – | – | inhibition (Mus musculus [14]): Active
8 | O=C(N[C@H](CO)C(=O)NOCc1ccccc1)OCc1ccccc1 | 5.1 µM | 5.6% | – | > 100 µM | Drug metabolism [15]: Metabolite_Detected
9 | NOCc1ccccc1 | 10 µM | 100% | Active | > 100 µM | –
10 | N[C@@H](CO)C(=O)NOCc1ccccc1 | 5.5 µM | 0% | – | > 100 µM | –
11 | O=C(N[C@@H](CO)C(=O)NCCc1ccccc1)OCc1ccccc1 | > 100 µM | -5.1% | – | > 100 µM | –

More lines, main results first:

Row | IC50 [1] | inhibition [3] | inhibition [4] | Structure (SMILES) | IC50 [2] | also measured
12 | 12 µM | 4.9% | – | O=C(N[C@@H](Cc1c[nH]c2ccccc12)C(=O)NOCc1ccccc1)OCc1ccccc1 | > 100 µM | –
13 | 4.6 µM | 10% | Active | O=C(N[C@@H](CO)C(=O)NOCc1ccccc1)OCc1ccccc1 | > 100 µM | Activity (A549): inactive; inhibition [5]: inactive
14 | 17 µM | 12% | inactive | O=C(NOCc1ccc([N+](=O)[O-])cc1)C12CC3CC(CC(C3)C1)C2 | > 100 µM | Drug metabolism [6]: Metabolite_Detected; Stability [7]: Stable; concentration at 2 h [8]: 18 nM; inhibition (Mus musculus [9]): inactive; inhibition (Mus musculus [10]): inactive; Drug metabolism [11]: Metabolite_Detected; concentration at 2 h [12]: 3 nM
15 | 8 µM | 100% | Active | Cl.NOCc1ccc([N+](=O)[O-])cc1 | > 100 µM | Stability [7]: Unstable
16 | > 100 µM | 0.19% | – | O=[N+]([O-])c1ccc(CONS(=O)(=O)Cc2ccccc2)cc1 | > 100 µM | –
17 | 24 µM | 9% | inactive | O=C(NOCc1ccc([N+](=O)[O-])cc1)[C@H](O)c1ccccc1 | > 100 µM | –
18 | 5.5 µM | -9.2% | Active | O=C(N[C@@H](CO)C(=O)NOCc1ccc([N+](=O)[O-])cc1)OCc1ccccc1 | > 100 µM | Drug metabolism [16]: Metabolite_Detected
19 | 5.2 µM | -9.4% | – | C[C@H](NC(=O)OCc1ccccc1)C(=O)NOCc1ccccc1 | > 100 µM | Stability [17]: Unstable; inhibition (Mus musculus [18]): inactive; Drug metabolism [19]: Metabolite_Detected
